Reference: the supplement of paper PMC10307832

Experiments:
Test in all cases: relative viability (nuclei count vs DMSO), 5 days (fraction); higher = more cells survive
4EGI-1 + Foretinib = compound: O=C(O)C(Cc1ccccc1[N+](=O)[O-])=NNc1nc(-c2ccc(Cl)c(Cl)c2)cs1 (mixture of isomers) [4EGI-1] + COc1cc2c(Oc3ccc(NC(=O)C4(C(=O)Nc5ccc(F)cc5)CC4)cc3F)ccnc2cc1OCCCN1CCOCC1 [Foretinib] (partner 0.25 µM)
Summary of the method: (§1)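 Relative viability was taken as the ratio of nuclei in treated wells to nuclei in vehicle wells. Lung cancer cell lines in 1536-well plates received compounds by pin tool one day after seeding, either one drug alone or a fixed anchor-drug dose plus five library-drug doses (not always all listed) in √10 steps. Nuclei were counted on 4× images after 5 days of treatment, and values are medians of duplicate plates.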

XMD8-85 + Pemetrexed = compound: CN1CCN(CC1)C2=CC(=C(C=C2)NC3=NC=C4C(=N3)N(C5=CC=CC=C5C(=O)N4C)C)OC [XMD8-85] + Nc1nc2[nH]cc(CCc3ccc(C(=O)N[C@@H](CCC(=O)O)C(=O)O)cc3)c2c(=O)[nH]1 [Pemetrexed] (partner 0.2 µM)
Summary of the method: as §1

4EGI-1 + Trametinib = compound: O=C(O)C(Cc1ccccc1[N+](=O)[O-])=NNc1nc(-c2ccc(Cl)c(Cl)c2)cs1 (mixture of isomers) [4EGI-1] + CC(=O)Nc1cccc(-n2c(=O)n(C3CC3)c(=O)c3c(Nc4ccc(I)cc4F)n(C)c(=O)c(C)c32)c1 [Trametinib] (partner 0.02 µM)
Summary of the method: as §1

4EGI-1 + Pemetrexed = compound: O=C(O)C(Cc1ccccc1[N+](=O)[O-])=NNc1nc(-c2ccc(Cl)c(Cl)c2)cs1 (mixture of isomers) [4EGI-1] + Nc1nc2[nH]cc(CCc3ccc(C(=O)N[C@@H](CCC(=O)O)C(=O)O)cc3)c2c(=O)[nH]1 [Pemetrexed] (partner 0.2 µM)
Summary of the method: as §1

Row | Cell Line | relative viability (4EGI-1 + Foretinib; first compound 0.5 µM) | relative viability (4EGI-1 + Foretinib; first compound 1.581 µM) | relative viability (4EGI-1 + Foretinib; first compound 5 µM) | relative viability (4EGI-1 + Foretinib; first compound 15.81 µM) | relative viability (4EGI-1 + Foretinib; first compound 50 µM) | relative viability (XMD8-85 + Pemetrexed; first compound 0.08 µM) | relative viability (XMD8-85 + Pemetrexed; first compound 0.253 µM) | relative viability (XMD8-85 + Pemetrexed; first compound 0.8 µM) | relative viability (XMD8-85 + Pemetrexed; first compound 2.53 µM) | relative viability (XMD8-85 + Pemetrexed; first compound 8 µM) | relative viability (4EGI-1 + Trametinib; first compound 0.5 µM) | relative viability (4EGI-1 + Trametinib; first compound 1.581 µM) | relative viability (4EGI-1 + Trametinib; first compound 5 µM) | relative viability (4EGI-1 + Trametinib; first compound 15.81 µM) | relative viability (4EGI-1 + Trametinib; first compound 50 µM) | relative viability (4EGI-1 + Pemetrexed; first compound 0.5 µM) | relative viability (4EGI-1 + Pemetrexed; first compound 1.581 µM) | relative viability (4EGI-1 + Pemetrexed; first compound 5 µM) | relative viability (4EGI-1 + Pemetrexed; first compound 15.81 µM) | relative viability (4EGI-1 + Pemetrexed; first compound 50 µM)
1 | LU99A | 0.817 | 0.605 | 0.856 | 0.616 | 0.551 | 0.162 | 0.179 | 0.183 | 0.199 | 0.165 | 0.516 | 0.436 | 0.583 | 0.538 | 0.307 | 0.177 | 0.179 | 0.166 | 0.248 | 0.154
2 | LXF-289 | 0.992 | 0.944 | 1 | 0.943 | 0.771 | 0.856 | 0.88 | 0.878 | 0.949 | 0.899 | 0.716 | 0.669 | 0.61 | 0.622 | 0.583 | 0.874 | 0.909 | 0.941 | 0.804 | 0.605
3 | NCI-H23 | 1.04 |  | 1.1 | 0.933 | 0.638 | 0.546 | 0.677 | 0.607 |  | 0.4 | 0.351 |  | 0.422 | 0.369 | 0.187 | 0.819 |  | 0.77 | 0.551 | 0.274
4 | NCI-H322M | 1.03 |  | 1.13 | 0.816 | 0.342 | 0.579 | 0.596 | 0.606 | 0.59 | 0.48 | 0.525 |  | 0.476 | 0.514 | 0.452 | 0.576 |  | 0.643 | 0.618 | 0.377
5 | NCI-H358 | 0.739 | 0.657 | 0.84 | 0.515 | 0.11 | 0.165 | 0.176 | 0.175 | 0.164 | 0.183 | 0.154 | 0.132 | 0.151 | 0.114 | 0.123 | 0.177 | 0.187 | 0.178 | 0.174 | 0.165
6 | NCI-H441 | 0.909 | 0.929 | 1.01 | 0.882 | 0.447 | 0.263 | 0.261 | 0.247 | 0.279 | 0.256 | 0.613 | 0.471 | 0.449 | 0.428 | 0.127 | 0.257 | 0.249 | 0.276 | 0.229 | 0.184
7 | NCI-H460 | 1.02 |  | 0.997 | 0.686 | 0.228 | 0.0608 | 0.0555 | 0.0635 | 0.0564 | 0.0781 | 0.245 | 0.0821 | 0.109 | 0.133 | 0.018 | 0.0637 | 0.0738 | 0.0637 | 0.0604 | 0.0616
8 | NCI-H520 | 0.89 | 0.812 | 0.937 | 0.875 | 0.638 | 0.709 | 0.697 | 0.75 | 0.595 | 0.361 | 0.947 | 0.83 | 0.749 | 0.724 | 0.145 | 0.674 | 0.704 | 0.677 | 0.655 | 0.123
9 | NCI-H596 | 0.856 | 0.644 | 0.796 | 0.757 | 0.75 | 0.477 |  | 0.457 | 0.465 | 0.368 | 1.09 | 0.83 | 0.918 | 0.661 | 0.545 | 0.535 | 0.458 | 0.51 | 0.455 | 0.43
10 | NCI-H647 | 1.44 |  | 1.18 | 1.24 | 0.66 | 0.172 | 0.16 | 0.18 | 0.151 | 0.116 | 0.585 | 0.493 | 0.475 | 0.384 | 0.129 | 0.198 | 0.179 | 0.206 | 0.156 | 0.087
11 | NCI-H650 | 1.13 |  | 1 | 0.958 | 0.897 | 0.944 | 0.921 | 1.04 | 0.852 | 0.717 | 1.07 |  | 1.02 | 0.984 | 0.833 | 0.966 |  | 1.06 | 0.973 | 0.725
12 | NCI-H661 | 0.999 | 0.94 | 0.994 | 0.714 | 0.313 | 0.944 | 0.946 | 0.93 | 1.01 | 0.782 | 0.653 | 0.524 | 0.572 | 0.439 | 0.29 | 0.939 | 0.834 | 0.92 | 0.761 | 0.334
13 | NCI-H838 | 1.03 |  | 1.13 | 1.04 | 0.369 | 0.243 | 0.247 | 0.249 | 0.208 | 0.184 | 0.694 | 0.483 | 0.512 | 0.506 | 0.141 | 0.247 | 0.255 | 0.244 | 0.225 | 0.174
14 | NCI-H1355 | 0.932 | 0.87 | 0.962 | 0.851 | 0.738 | 1.04 | 1.02 | 1.03 | 1.07 | 0.976 | 0.47 | 0.428 | 0.372 | 0.319 | 0.33 | 0.967 | 0.927 | 0.99 | 0.963 | 0.589
15 | NCI-H1395 | 1.15 | 0.86 | 1.04 | 0.986 | 0.589 | 0.768 | 0.744 | 0.854 | 0.976 | 0.594 | 1.34 |  | 1.06 | 1.1 | 0.7 | 0.878 |  | 1.12 | 0.917 | 0.421
